Tests used:
Assay type in all cases: in vivo
[1] = tested on: Ivyleaf morningglory; experiment: Herbicidal effect in pots sown with ethaboxam-treated soybean seeds, PPO inhibitor sprayed on soil (Example 1); conditions: soybean pot, day 7 after sowing, scale 0 to 100
Description: In a plastic cup of 100 mm in inside diameter and 40 mm in height, 10.5 mg of an ethaboxam suspension (a suspension containing 34.6% of ethaboxam, manufactured by Valent USA Corp.) and 40 soybean seeds were placed. The plastic cup was shaken by the hand so that the ethaboxam suspension was attached to the soybean seeds. The weight of 40 soybean seeds was 12.1 g, and the amount of ethaboxam by the above treatment was calculated as 30 g per 100 kg of the soybean seeds. In the same manner, 104.9 mg of the ethaboxam suspension was attached to 40 soybean seeds. The weight of 40 soybean seeds was 12.1 g, and the amount of ethaboxam by the above treatment was calculated as 300 g per 100 kg of the soybean seeds. A soil was packed in a plastic pot of 120 mm in inside diameter×80 mm in height. The above treated soybean seeds were sown in this pot at a rate of two seeds per pot, and the seeds of ivyleaf morningglory were sown at a rate of four seeds per pot. On the day of sowing the soybean seeds and after sowing the soybean seeds, an aqueous diluted solution (113 mg of active ingredient/L or 225 mg of active ingredient/L) of a flumioxazin granular wettable powder (a granular wettable powder containing 51% of flumioxazin, trade name: Valor SX, manufactured by Valent USA), an aqueous diluted solution (226 mg of active ingredient/L or 1130 mg of active ingredient/L) of a sulfentrazone granular wettable powder (a granular wettable powder containing 75% of sulfentrazone, trade name: Cover, manufactured by DuPont), or an aqueous diluted solution (113 mg/L or 226 mg/L) of saflufenacil was uniformly sprayed on the soil surface with a sprayer so as to apply the amount described in Tables 1 to 3. […] On day 7 after sowing the seeds of soybean and ivyleaf morningglory, the herbicidal effect was investigated.

[2] = tested on: Ivyleaf morningglory; experiment: Herbicidal effect in pots sown with ethaboxam-treated corn seeds, PPO inhibitor sprayed on soil (Example 2); conditions: corn pot, day 7 after sowing, scale 0 to 100
Description: In a plastic cup of 100 mm in inside diameter and 40 mm in height, 13.4 mg of an ethaboxam suspension (a suspension containing 34. 6% of ethaboxam, manufactured by Valent USA Corp.) and 40 corn seeds were placed. The plastic cup was shaken by the hand so that the ethaboxam suspension was attached to the corn seeds. The weight of 40 corn seeds was 15.5 g, and the amount of ethaboxam by the above treatment was calculated as 30 g per 100 kg of the corn seeds. In the same manner, 138.7 mg of the ethaboxam suspension was attached to 40 corn seeds. The weight of 40 corn seeds was 16.0 g, and the amount of ethaboxam by the above treatment was calculated as 300 g per 100 kg of the corn seeds. A soil was packed in a plastic pot of 120 mm in inside diameter×80 mm in height. The above treated corn seeds were sown in this pot at a rate of two seeds per pot, and the seeds of ivyleaf morningglory were sown at a rate of four seeds per pot. On the day of sowing the corn seeds and after sowing the corn seeds, an aqueous diluted solution (113 mg of active ingredient/L or 225 mg of active ingredient/L) of a flumioxazin granular wettable powder (a granular wettable powder containing 51% of flumioxazin, trade name: Valor SX, manufactured by Valent USA), an aqueous diluted solution (226 mg of active ingredient/L or 1130 mg of active ingredient/L) of a sulfentrazone granular wettable powder (a granular wettable powder containing 75% of sulfentrazone, trade name: Cover, manufactured by DuPont), or an aqueous diluted solution (113 mg/L or 226 mg/L) of saflufenacil was uniformly sprayed on the soil surface with a sprayer so as to apply the amount described in Tables 4 to 6. […] On day 7 after sowing the seeds of corn and ivyleaf morningglory, the herbicidal effect was investigated.

[3] = tested on: Ivyleaf morningglory; experiment: Herbicidal effect in pots sown with ethaboxam-treated cotton seeds, PPO inhibitor sprayed on soil (Example 3); conditions: cotton pot, day 7 after sowing, scale 0 to 100
Description: In a plastic cup of 100 mm in inside diameter and 40 mm in height, 5.7 mg of an ethaboxam suspension (a suspension containing 34.6% of ethaboxam, manufactured by Valent USA Corp.) and 40 cotton seeds were placed. The plastic cup was shaken by the hand so that the ethaboxam suspension was attached to the cotton seeds. The weight of 40 cotton seeds was 6.6 g, and the amount of ethaboxam by the above treatment was calculated as 30 g per 100 kg of the cotton seeds. In the same manner, 56.7 mg of the ethaboxam suspension was attached to 40 cotton seeds. The weight of 40 cotton seeds was 6.55 g, and the amount of ethaboxam by the above treatment was calculated as 300 g per 100 kg of the cotton seeds. A soil was packed in a plastic pot of 120 mm in inside diameter×80 mm in height. The above cotton seeds were sown in this pot at a rate of two seeds per pot, and the seeds of ivyleaf morningglory were sown at a rate of four seeds per pot. On the day of sowing the cottonseeds and after sowing the cotton seeds, an aqueous diluted solution (113 mg of active ingredient/L or 225 mg of active ingredient/L) of a flumioxazin granular wettable powder (a granular wettable powder containing 51% of flumioxazin, trade name: Valor SX, manufactured by Valent USA), an aqueous diluted solution (226 mg of active ingredient/L or 1130 mg of active ingredient/L) of a sulfentrazone granular wettable powder (a granular wettable powder containing 75% of sulfentrazone, trade name: Cover, manufactured by DuPont), or an aqueous diluted solution (113 mg/L or 226 mg/L) of saflufenacil was uniformly sprayed on the soil surface with a sprayer so as to apply the amount described in Tables 7 to 9. […] On day 7 after sowing the seeds of cotton and ivyleaf morningglory, the herbicidal effect was investigated.

[4] = ethaboxam 30 g/100 kg of seeds, no PPO inhibitor
[5] = ethaboxam 300 g/100 kg of seeds, no PPO inhibitor
[6] = no ethaboxam, flumioxazin 100 g/ha
[7] = no ethaboxam, saflufenacil 100 g/ha
[8] = no ethaboxam, sulfentrazone 500 g/ha

For `CCNc1nc(CC)c(C(=O)NC(C#N)c2cccs2)s1` (centres unmarked) [ethaboxam], the “Herbicidal effect Ivyleaf morningglory” value [1, 4] was 0, the “Herbicidal effect Ivyleaf morningglory” value [1, 5] was 0 and the “Herbicidal effect Ivyleaf morningglory” value [2, 4] was 0. For the same molecule, the “Herbicidal effect Ivyleaf morningglory” value [2, 5] was 0, the “Herbicidal effect Ivyleaf morningglory” value [3, 4] was 0 and the “Herbicidal effect Ivyleaf morningglory” value [3, 5] was 0.
For `C#CCN1C(=O)COc2cc(F)c(N3C(=O)C4=C(CCCC4)C3=O)cc21` [flumioxazin], the “Herbicidal effect Ivyleaf morningglory” value [2, 6] was 30 and the “Herbicidal effect Ivyleaf morningglory” value [3, 6] was 30.
In the case of `CC(C)N(C)S(=O)(=O)NC(=O)c1cc(-n2c(=O)cc(C(F)(F)F)n(C)c2=O)c(F)cc1Cl` [saflufenacil], the “Herbicidal effect Ivyleaf morningglory” value [1, 7] is reported as 50, the “Herbicidal effect Ivyleaf morningglory” value ([3]; no ethaboxam, saflufenacil 50 g/ha) is reported as 20 and the “Herbicidal effect Ivyleaf morningglory” value [3, 7] is reported as 70.
With `Cc1nn(-c2cc(NS(C)(=O)=O)c(Cl)cc2Cl)c(=O)n1C(F)F` [sulfentrazone] the “Herbicidal effect Ivyleaf morningglory” value ([2]; no ethaboxam, sulfentrazone 100 g/ha) was 30, the “Herbicidal effect Ivyleaf morningglory” value [2, 8] was 70 and the “Herbicidal effect Ivyleaf morningglory” value [3, 8] was 40.

— patent publication US9420787B2, “Method for controlling noxious organisms” (SUMITOMO CHEMICAL COMPANY, LIMITED, priority 2012, dated 2016)
